Experiment [1] has as its target T1, α-glucosidase (Saccharomyces cerevisiae, UniProt P53341). Further details: method as in 7 sources, ref [4]; doi:10.1016/j.foodchem.2011.05.067; 4. Yu Z. Yin Y. Zhao W. Yu Y. Liu B. Liu J. Chen F. Novel peptides derived from egg white protein inhibiting alpha-glucosidase Food Chem. 2011 129 1376 1382 10.1016/j.foodchem.2011.05.067 ||| ref [25] = [25]; PMID 22953959; doi:10.1016/j.foodchem.2012.06.088; 25. Yu Z. Yin Y. Zhao W. Liu J. Chen F. Anti-diabetic activity peptides from albumin against alpha-glucosidase and alpha-amylase Food Chem. 2012 135 2078 2085 10.1016/j.foodchem.2012.06.088 22953959 ||| ref [10] = [10]; doi:10.1016/j.lwt.2021.113062; 10. Zhao Q. Wei G. Li K. Duan S. Ye R. Huang A. Identification and molecular docking of novel α-glucosidase inhibitory peptides from hydrolysates of Binglangjiang buffalo casein LWT 2022 156 113062 10 ||| ref [27] = [27]; PMID 36240562; doi:10.1016/j.foodchem.2022.134481; 27. Wang X. Deng Y. Xie P. Liu L. Zhang C. Cheng J. Zhang Y. Liu Y. Huang L. Jiang J. Novel bioactive peptides from ginkgo biloba seed protein and evaluation of their alpha-glucosidase inhibition acti ||| ref [43] = [43]; PMID 34920404; doi:10.1016/j.foodchem.2021.131717; 43. Chandrasekaran S. Gonzalez de Mejia E. Optimization, identification, and comparison of peptides from germinated chickpea ( Cicer arietinum ) protein hydrolysates using either papain or ficin and t ||| ... Conditions: cited from earlier work; for IC50 values: from germinated chickpea protein, ref [43].

In experiment [2] the target is T1, α-glucosidase. As to the kind of experiment: α-glucosidase inhibition activity (PNPG). Type of experiment: biochemical. Conditions: synthetic peptides; enzyme 0.2 U/mL, preincubation 25 °C 10 min, PNPG 5 mmol/L, 30 min 37 °C, 405 nm; mean ± SD, three repetitions. The text has this: Shiitake mushrooms were acquired from a farmers’ market. Neutral protease (50 U/mg), pepsin (1:30,000), alkaline protease (200 U/mg), acid protease (50 U/mg), papain (800 U/mg), and flavor protease (20 U/mg) were purchased from Qiyi Biotechnology (Shanghai, China) Co., Ltd. α-glucosidase (10 U/mg) and 4-nitrophenyl a-D-glucopyranoside (PNPG, 99% purity) were purchased from Sigma-Aldrich (St. Louis, MO, USA). Acetonitrile (HPLC grade, 99.9% purity) was purchased from Fisher Chemical (Hampton, NH, USA). Formic acid (LC-MS grade, 99% purity) was purchased from Thermo Scientific (Waltham, MA, USA). Other reagents were of analytical grade and commercially available.
A quantity of 100 μL α-glucosidase solution (0.2 U/mL) was premixed with 50 μL sample solution in the enzyme label plate, and incubated at 25 °C for 10 min; 50 μL of PNPG (5 mmol/L) solution was added to start reactions, and incubation was continued for another 30 min at 37 °C. The reaction was terminated with 50 μL 0.67 mol/L Na2CO3 solution. The absorbance value was measured at 405 nm using an AMR-100 automatic enzyme label analyzer. The results were calculated using the following formula:Inhibitory rate (%) = ((Acontrol − Asample)/Acontrol) × 100(1)
All experiments had three repetitions. Data are expressed as mean ± standard deviation. Statistical significance (Duncan’s test, p < 0.05) was analyzed by DPS. Response surface data were analyzed using Design-ExpertV8.0.6 software.

[3] abbreviates: from ginkgo biloba seed protein, ref [27], read-out: IC50 values, α-glucosidase inhibitory activity.
[4] abbreviates: from Binglangjiang buffalo casein, ref [10], read-out: IC50 values, inhibitory activity of α-glucosidase.

Results on 15 compounds are retold here after paper PMC10340682, “Preparation and Identification of Peptides with α-Glucosidase Inhibitory Activity from Shiitake Mushroom (Lentinus edodes) Protein” (Foods, 2023).

Like-named read-outs stand apart in the source and are kept apart here. Residues, ends and D or L forms follow the SMILES beside them.

T1 sequence (P53341 whole entry): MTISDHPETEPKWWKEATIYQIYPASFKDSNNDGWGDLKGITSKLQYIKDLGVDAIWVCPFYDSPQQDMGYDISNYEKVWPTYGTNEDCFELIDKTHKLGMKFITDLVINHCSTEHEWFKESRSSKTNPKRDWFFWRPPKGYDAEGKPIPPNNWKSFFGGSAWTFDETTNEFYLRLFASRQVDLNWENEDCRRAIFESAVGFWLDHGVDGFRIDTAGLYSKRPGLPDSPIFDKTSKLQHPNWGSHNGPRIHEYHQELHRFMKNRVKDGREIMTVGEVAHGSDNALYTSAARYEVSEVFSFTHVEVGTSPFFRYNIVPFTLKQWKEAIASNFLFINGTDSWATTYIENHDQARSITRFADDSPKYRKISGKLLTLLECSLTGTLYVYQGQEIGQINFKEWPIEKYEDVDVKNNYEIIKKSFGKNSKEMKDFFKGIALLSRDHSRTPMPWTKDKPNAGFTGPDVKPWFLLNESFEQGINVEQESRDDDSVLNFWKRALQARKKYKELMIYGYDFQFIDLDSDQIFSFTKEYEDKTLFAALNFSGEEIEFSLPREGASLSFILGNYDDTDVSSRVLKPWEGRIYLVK

One may read the IC50 as the point on the concentration scale where inhibition reaches its midpoint. For the compound “LSMSFPPF [identified from ginkgo biloba seed protein]”, the IC50 in experiment [1] (setting [3]) was 454 ± 32.5 µM.

As for GLAR [from germinated chickpea protein], the IC50 values in experiment [1] is 8700 µg/mL.

On to “SPGAGKG [from germinated chickpea protein]”, for which, in experiment [1], the IC50 values was 1800 µg/mL.

In turn, `CC(C)C[C@H](NC(=O)[C@H](CCCCN)NC(=O)[C@@H]1CCCN1C(=O)[C@H](CCC(=O)O)NC(=O)CNC(=O)[C@@H](N)CCC(=O)O)C(=O)N1CCC[C@H]1C(=O)O` [EGEPKLP] (H-EGEPKLP-OH) returned an IC50 in experiment [2] of 499 ± 39 µM.

For `CC(C)C[C@H](NC(=O)[C@H](CC(=O)O)NC(=O)[C@H](CC(=O)O)NC(=O)[C@@H](N)CCCCN)C(=O)N[C@@H](CCCNC(=N)N)C(=O)N[C@@H](CO)C(=O)N1CCC[C@H]1C(=O)O` [KDDLRSP] (H-KDDLRSP-OH), in experiment [2], the 50% inhibitory concentration (IC50) is 550 ± 37 µM.

Turning to `CC(C)C[C@H](NC(=O)[C@H](CCCCN)NC(=O)CNC(=O)[C@H](Cc1ccc(O)cc1)NC(=O)[C@H](CC(=O)O)NC(=O)[C@@H](N)CC(C)C)C(=O)O` [LDYGKL] (H-LDYGKL-OH), in experiment [2], the IC50 came out at 696 ± 39 µM.

As for “RNAVPITPTLNR [from Binglangjiang buffalo casein]”, in experiment [1] (setting [4]), the IC50 was 504 µM.

With “VPKIPPP [identified from ginkgo biloba seed protein]”, the 50% inhibitory concentration (IC50) in experiment [1] (setting [3]) is 1450 ± 67 µM.

For “TKVIPYVRYL [from Binglangjiang buffalo casein]”, the 50% inhibitory concentration (IC50) in experiment [1] (setting [4]) is 498 µM.

In experiment [2], `CC(C)C[C@H](NC(=O)[C@H](CCCCN)NC(=O)[C@H](CC(C)C)NC(=O)[C@H](CCC(=O)O)NC(=O)[C@@H]1CCCN1C(=O)[C@@H](N)[C@@H](C)O)C(=O)O` [TPELKL] (H-TPELKL-OH) yielded an IC50 of 452 ± 36 µM.

In the case of “FALPQYLK [from Binglangjiang buffalo casein]”, the IC50 in experiment [1] (setting [4]) is 543 µM.

As for “MPGPPSD [identified from ginkgo biloba seed protein]”, the IC50 in experiment [1] (setting [3]) is 944 ± 73.1 µM.

Turning to “RVPSLM [identified from egg white protein]”, the half-maximal inhibitory concentration (IC50) in experiment [1] (identified from egg white protein, ref [4], read-out: IC50 value, α-glucosidase inhibitory activity) is 23.1 µM.

On to KLPGF, for which the half-inhibitory concentration (IC50) in experiment [1] (from albumin, ref [25], read-out: IC50 of α-glucosidase inhibitory peptide) is 59.5 ± 5.7 µM.

Regarding “YLGYLEQLLR [from Binglangjiang buffalo casein]”, the IC50 in experiment [1] (setting [4]) was 470 µM.
